# Results as given in patent US11214835B1, “Methods and compositions for diagnosis and management of neurodegerative diseases” (UNIVERSITY OF SOUTH FLORIDA, priority 2017, dated 2022).
# Key:
# [1] = test system: GAS5 lncRNA; experiment: γ-AApeptide OBOC combinatorial library screen with fluorescein tagged GAS5 oligonucleotide, hits validated in vitro; assay type: binding; settings: fluorescein tagged GAS5 oligonucleotide probe, tRNA as control
# Source text: The interaction between UPF1 and GAS5 was disrupted using a γ-AApeptide based one-bead-one-compound (OBOC) combinatorial library (Wu H, Li Y, Bai G, Niu Y, Qiao Q, Tipton J D, Cao C, Cai J. gamma-AApeptide-based small-molecule ligands that inhibit Abeta aggregation. Chemical communications. 2014; 50(40):5206-8. doi: 10.1039/c3cc46685j. PubMed PMID: 24158240). The γ-AApeptide is a peptidomimetic with side chains for chemical diversity and are resistant to proteolytic cleavage. To screen the compound library, a probe that contained a fluorescein tagged oligonucleotide was synthesized. The probe spanned 30 nucleotides on either side of the UAA sequences on GAS5 (FIG. 13) The fluorescein was attached to the 5′end (beginning of oligonucleotide probe sequence). The nucleotide sequence within the GAS5 IncRNA that the oligonucleotide probe binds to can be about 100% identical to […] (SEQ ID NO: 4), which is nucleotides 541 to 651 of SEQ ID NO: 1. The underlined regions indicate the UAA that is the target regions. As such, the oligonucleotide probe was designed to flank both sides of these target regions.
# The length of oligonucleotide was required to maintain stem loop structure to specifically bind to GAS5. Further, we modeled the oligonucleotide (RNAfold software) to evaluate its folding and verified absence of any unwanted secondary structures. The backbone was modified by 2′-MOE (2′-O-methoxyethylribose), which protects it from degradation and a fluoroscein tag was attached to the 5′end to aid in screening. The oligonucleotide probe was used to screen 160,000 molecules in the combinatorial library using tRNA as control (as tRNA has similar stem loop secondary structures). […] The compound having a structure according to Formula 3 was determined to have a chemical formula of C68H92N10O9S, a mass of about 1224.6769, and a molecular weight of 1225.6050. The compound having a structure according to Formula 14 was determined to have a chemical formula of C63H85N9O13S, a mass of about 1207.5988, and a molecular weight of 1208.4830. […]
# [2] = test system: DM adipocytes; experiment: Cell viability / toxicity in DM adipocytes; assay type: cell-based, human; settings: 20 nM, 24 hours
# [3] = test system: GAS5; experiment: Binding of side-chain derivatives to GAS5 (preliminary data)
# [4] = test system: HT22 cells; experiment: Toxicity of side-chain derivatives to HT22 cells (preliminary data)
# [5] = test system: C57BL/6 mice; experiment: Intranasal administration to C57BL/6 mice: brain uptake and toxicity; assay type: in vivo, mouse; settings: 10 nM in 10 μl
# Method: Brain tissue was harvested after about 48 h.
# Separately, NPG567 or other compounds can be administered by intranasal delivery (APP/PS1 beginning at either 6 months of age (preventive) or 12 months of age (therapeutic); dose repeated alternate days; Tg4510 beginning at either 3 months of age (preventive) or 8 months of age (therapeutic); alternate days. See FIG. 25B for a schematic of the experimental protocol. The treatment efficacy for the two modes of delivery at timeframes as shown in FIGS. 25A and 25B and described herein. Intranasal delivery is a noninvasive method that bypasses the blood-brain barrier and delivers the drug to the brain and the spinal cord, thereby avoiding any systemic side effects. […] Brain tissue was harvested after about 48 h.
Compound,ability to bind GAS5 (identified and validated from library screen) [1],cell toxicity in DM adipocytes [2],binding to GAS5 [3],toxicity to HT22 cells [4],toxicity to the animals ([5]; C57BL/6 mice),"blood-brain barrier crossing and brain uptake ([5]; fluorescein-labeled, 14 week C57BL/6 mice, brain harvested after about 48 h)"
CC(C)C[C@H]1CN(C(=O)CC2CC2)CC(=O)N[C@@H](CCCCN)CN(C(=O)CCc2ccccc2)CC(=O)N[C@@H](Cc2ccccc2)CN(CC(N)=O)C(=O)CCSCc2ccc(cc2)C(=O)N[C@@H](Cc2ccccc2)CN(C(=O)CC2CC2)CC(=O)N1 [Formula G5-1397],able to bind GAS5,without causing cell toxicity,,,,
NCCCC[C@H]1CN(C(=O)CCc2ccccc2)CC(=O)N[C@@H](CCC(=O)O)CN(CC(N)=O)C(=O)CCSCc2ccc(cc2)C(=O)N[C@@H](CCC(=O)O)CN(C(=O)CCC(=O)O)CC(=O)N[C@@H](CCCCN)CN(C(=O)CCCN)CC(=O)N1 [NPG567],can bind GAS5,,bound efficiently to GAS5,not toxic to HT22 cells,not toxic to the animals,crossed the blood-brain barrier and taken up by the brain
